Source: ChEMBL document CHEMBL5523698, “Design, synthesis, and biological evaluation of phenylcyclopropylamine-entinostat conjugates that selectively target cancer cells” (Bioorg Med Chem, 2024)
Active and inactive are the calls of the source. The calls are words filed in the database; no cut-off is given here.

Assays:
[1] = target: T1, Lysine-specific histone demethylase 1A (Homo sapiens, UniProt O60341)
Description: Inhibition of human recombinant LSD1 using H3K4me2 peptide substrate preincubated for 15 mins followed by substrate addition and measured after 30 mins by fluorescence based assay

[2] = target: T2, Histone deacetylase (Homo sapiens) (UniProt Q13547+O15379+Q9UBN7+Q92769+Q9UQL6+Q8WUI4+Q9BY41+Q96DB2+P56524+Q9UKV0+Q969S8); experiment: Inhibition of HDAC in human PC-3 cells assessed as fold increase in acetylated H3K9 to H3 ratio at 1 uM incubated for 24 hrs by Western blotting analysis (reference value: […]); type: cell-based
[3] = target: T2, Histone deacetylase (Homo sapiens); experiment: Inhibition of HDAC in human PC-3 cells assessed as H3K9 acetylation at 0.1 to 1 uM incubated for 24 hrs by Western blotting analysis; type: cell-based; conditions: dose 0.1-1 µM
[4] = target: T2, Histone deacetylase (Homo sapiens); experiment: Inhibition of HDAC in human PC-3 cells assessed as fold increase in acetylated H3K9 to H3 ratio at 0.1 uM incubated for 24 hrs by Western blotting analysis (reference value: […]); type: cell-based
HL-60 = experiment: cells; conditions: Homo sapiens, HL-60, 72 h
Description: Antiproliferative activity against human HL-60 cells incubated for 3 days by alamar blue assay

[5] = target: T1, Lysine-specific histone demethylase 1A; experiment: Inhibition of LSD1 in human PC-3 cells assessed as fold increase in H3K4me2 to H3 ratio at 0.1 uM incubated for 24 hrs by Western blotting analysis (reference value: 1); type: cell-based
[6] = target: T1, Lysine-specific histone demethylase 1A; experiment: Inhibition of LSD1 in human PC-3 cells assessed as fold increase in H3K4me2 to H3 ratio at 0.3 uM incubated for 24 hrs by Western blotting analysis (reference value: 1); type: cell-based
[7] = target: T1, Lysine-specific histone demethylase 1A; experiment: Drug metabolism assessed as LSD1 (unknown origin) mediated entinostat release incubated for 24 hrs by HPLC analysis; type: ADME
[8] = target: T1, Lysine-specific histone demethylase 1A; experiment: Inhibition of LSD1 in human PC-3 cells assessed as fold increase in H3K4me2 to H3 ratio at 1 uM incubated for 24 hrs by Western blotting analysis (reference value: 1); type: cell-based
LN-18 = experiment: cells; conditions: Homo sapiens, LN-18, 72 h
Description: Antiproliferative activity against human LN-18 cells incubated for 3 days by alamar blue assay

[9] = target: T1, Lysine-specific histone demethylase 1A; experiment: Potency index, ratio of PCPA IC50 to test compound IC50 for inhibition of human recombinant LSD1
[10] = target: T1, Lysine-specific histone demethylase 1A; experiment: Inhibition of LSD1 in human PC-3 cells assessed as increase in H3K4me2 level incubated for 24 hrs by Western blotting analysis; type: cell-based; conditions: dose 0.1-1 µM
[11] = target: T2, Histone deacetylase (Homo sapiens); experiment: Inhibition of HDAC in human PC-3 cells assessed as fold increase in acetylated H3K9 to H3 ratio at 0.3 uM incubated for 24 hrs by Western blotting analysis (reference value: 1); type: cell-based
PC-3 = experiment: cells; conditions: Homo sapiens, PC-3, 72 h
Description: Antiproliferative activity against human PC-3 cells incubated for 3 days by alamar blue assay

in vitro = conditions: human, PrEC cells
Description: Cytotoxicity against human PrEC cells incubated for 3 days by alamar blue assay

[12] = target: T1, Lysine-specific histone demethylase 1A; experiment: Drug metabolism assessed as LSD1 (unknown origin) mediated entinostat release; type: ADME

Structure (SMILES)	IC50 [1]	fold change (FC) [2]	inhibition [3]	fold change (FC) [4]	GI50 (HL-60)	fold change (FC) [5]	fold change (FC) [6]	Drug metabolism [7]	fold change (FC) [8]	GI50 (LN-18)	Ratio IC50 [9]	inhibition [10]	fold change (FC) [11]	GI50 (PC-3)	GI50 at 72 h (in vitro)	Drug metabolism [12]
CN(CCN(C)C1CC1c1ccccc1)C(=O)Oc1ccc(COC(=O)Nc2ccccc2NC(=O)c2ccc(CNC(=O)OCc3cccnc3)cc2)cc1 (stereo unspecified)	626 nM	2.01	Active	1.48	4490 nM	1.18	1.49	Metabolite_Detected	1.58	5620 nM	40	Dose-Dependent Effect	1.77	1180 nM	> 100000 nM	–
CN(CCN(C)C1CC1c1ccccc1)C(=O)Nc1ccccc1NC(=O)c1ccc(CNC(=O)OCc2cccnc2)cc1 (stereo unspecified)	50300 nM	–	–	–	–	–	–	–	–	–	–	–	–	–	–	Metabolite_Notdetected
Nc1ccccc1NC(=O)c1ccc(CNC(=O)OCc2cccnc2)cc1 [ENTINOSTAT]	–	–	–	–	214 nM	–	–	–	–	917 nM	–	–	–	87 nM	2230 nM	–
